Reference: publication PMC8119466, “A screen of FDA-approved drugs identifies inhibitors of protein tyrosine phosphatase 4A3 (PTP4A3 or PRL-3)” (Scientific Reports, 2021)
Where a name gives a salt, the structure may show the parent alone. Read-outs that look alike come from different tables or passages of the source.

What was measured:
Type in all cases: biochemical
recombinant PRL-3 = target: T1, recombinant PRL-3 (Homo sapiens, UniProt O75365); experiment: In vitro phosphatase assay (DiFMUP hydrolysis), PRL-3; also: test concentration or dose not given here
T1 construct: 6xHis (N, cleaved yes); made in house; host or cells: E. coli One Shot BL21 Star

recombinant PRL-2 = target: T2, recombinant PRL-2 (Homo sapiens, UniProt Q12974); experiment: In vitro phosphatase assay (DiFMUP hydrolysis), PRL-2;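 also: PRL-2 activity read as DiFMUP hydrolysis after 20 min at room temperature with drug, enzyme first pre-reduced at 4 °C for 20 min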
T2 construct: 6xHis (N, cleaved yes); made in house; host or cells: E. coli One Shot BL21 Star
T2 sequence (Q12974 1-167): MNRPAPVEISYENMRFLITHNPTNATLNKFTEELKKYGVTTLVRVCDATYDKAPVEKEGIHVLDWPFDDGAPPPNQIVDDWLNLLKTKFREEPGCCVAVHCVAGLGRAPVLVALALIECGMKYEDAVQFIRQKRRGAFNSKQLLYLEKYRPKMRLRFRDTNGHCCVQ

recombinant PRL-1 = target: T3, recombinant PRL-1 (Homo sapiens, UniProt Q93096); experiment: In vitro phosphatase assay (DiFMUP hydrolysis), PRL-1; also: test concentration or dose not given here
T3 construct: 6xHis (N, cleaved yes); made in house; host or cells: E. coli One Shot BL21 Star
T3 sequence (Q93096 1-173): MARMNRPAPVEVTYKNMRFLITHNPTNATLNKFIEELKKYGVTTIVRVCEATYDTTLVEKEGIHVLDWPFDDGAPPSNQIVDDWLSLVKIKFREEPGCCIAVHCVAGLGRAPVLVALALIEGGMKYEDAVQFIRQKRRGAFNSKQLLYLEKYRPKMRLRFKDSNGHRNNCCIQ

[1] = FDA-approved drug screen, compared to DMSO

T1 sequence (O75365 whole entry): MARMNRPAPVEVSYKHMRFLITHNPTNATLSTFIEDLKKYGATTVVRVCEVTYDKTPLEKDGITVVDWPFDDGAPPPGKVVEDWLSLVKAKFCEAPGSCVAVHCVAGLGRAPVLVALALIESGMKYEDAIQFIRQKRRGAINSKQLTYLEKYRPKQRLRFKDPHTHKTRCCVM

Structure (SMILES) | % Phosphatase Activity (compared to DMSO) PRL-3 (recombinant PRL-3; [1]) [%] | % Phosphatase Activity (compared to DMSO) PRL-2 (recombinant PRL-2; [1]) [%] | % Phosphatase Activity (compared to DMSO) PRL-1 (recombinant PRL-1; [1]) [%] | % Phosphatase Activity (compared to DMSO) PRL-3 (recombinant PRL-3) [%] | % Phosphatase Activity (compared to DMSO) PRL-2 (recombinant PRL-2) [%] | % Phosphatase Activity (compared to DMSO) PRL-1 (recombinant PRL-1) [%]
Cc1cccc(C)c1NC(=O)CN1CCCC1=O [Nefiracetam] | 88 | 95 | 94 | – | – | –
CN1CCOC(c2ccccc2)c2ccccc2C1 (stereo not drawn) [Nefopam HCl] | 101 | 87 | 108 | – | – | –
COc1nc(N)nc2c1ncn2[C@@H]1O[C@H](CO)[C@@H](O)[C@@H]1O [Nelarabine] | – | – | – | 79 | 108 | 93
Cc1c(O)cccc1C(=O)N[C@@H](CSc1ccccc1)[C@H](O)CN1C[C@H]2CCCC[C@H]2C[C@H]1C(=O)NC(C)(C)C [Nelfinavir Mesylate] | 79 | 91 | 102 | – | – | –
NC[C@@H]1O[C@H](O[C@H]2[C@@H](O)[C@H](O[C@@H]3[C@@H](O)[C@H](N)C[C@H](N)[C@H]3O[C@H]3O[C@H](CN)[C@@H](O)[C@H](O)[C@H]3N)O[C@@H]2CO)[C@H](N)[C@@H](O)[C@@H]1O.O=S(=O)(O)O [Neomycin sulfate] | 86 | 103 | 98 | – | – | –
NC(=O)Cc1cccc(C(=O)c2ccccc2)c1N [Nepafenac] | 72 | 93 | 96 | – | – | –
CCOc1cc2ncc(C#N)c(Nc3ccc(OCc4ccccn4)c(Cl)c3)c2cc1NC(=O)/C=C/CN(C)C [Neratinib (HKI-272)] | 91 | 111 | 110 | – | – | –
CCN[C@@H]1C[C@H](N)[C@@H](O[C@H]2OC(CN)=CC[C@H]2N)[C@H](O)[C@H]1O[C@H]1OC[C@](C)(O)[C@H](NC)[C@H]1O.CCN[C@@H]1C[C@H](N)[C@@H](O[C@H]2OC(CN)=CC[C@H]2N)[C@H](O)[C@H]1O[C@H]1OC[C@](C)(O)[C@H](NC)[C@H]1O.O=S(=O)(O)O.O=S(=O)(O)O.O=S(=O)(O)O.O=S(=O)(O)O.O=S(=O)(O)O [Netilmicin Sulfate] | 111 | 110 | 86 | – | – | –
Cc1ccnc2c1NC(=O)c1cccnc1N2C1CC1 [Nevirapine] | 111 | 101 | 85 | – | – | –
O=C(CCNNC(=O)c1ccncc1)NCc1ccccc1 [Nialamide] | 96 | 100 | 95 | – | – | –
COC(=O)C1=C(C)NC(C)=C(C(=O)OCCN(C)Cc2ccccc2)C1c1cccc([N+](=O)[O-])c1 (stereo not drawn) [Nicardipine HCl] | 68 | 80 | 85 | – | – | –
O=C(NCCO[N+](=O)[O-])c1cccnc1 [Nicorandil] | 91 | 103 | 86 | – | – | –
NC(=O)c1cccnc1 [Nicotinamide (Vitamin B3)] | 98 | 95 | 88 | – | – | –
CN1CCC[C@H]1c1cccnc1.O=C(O)C(O)C(O)C(=O)O.O=C(O)C(O)C(O)C(=O)O [Nicotine Ditartrate] | – | – | – | 96 | 96 | 95
O=C(O)c1cccnc1 [Nicotinic Acid] | – | – | – | 91 | 94 | 95
Cc1c(NC(=O)c2cccnc2)c(=O)n(-c2ccccc2)n1C [Nifenazone] | 92 | 105 | 91 | – | – | –
O=C(O)c1cccnc1Nc1cccc(C(F)(F)F)c1 [Niflumic acid] | 88 | 112 | 109 | – | – | –
O=C(N/N=C/c1ccc([N+](=O)[O-])o1)c1ccc(O)cc1 [Nifuroxazide] | 57 | 62 | 68 | – | – | –
